Experimental data published in patent publication US9138436B2, “Inhibitors of Bruton's tyrosine kinase” (PHARMACYCLICS LLC, priority 2011, dated 2015).

Each molecule was assayed against Btk (Homo sapiens, UniProt Q06187) (assay: Btk in vitro inhibitory activity, acellular kinase assay (TR-FRET)).
Format: biochemical
Description: Btk kinase activity is determined using a time-resolved fluorescence resonance energy transfer (TR-FRET) methodology. Measurements are performed in a reaction volume of 50 μL using 96-well assay plates. Kinase enzyme, inhibitor, ATP (at the Km for the kinase), and 1 μM peptide substrate (Biotin-AVLESEEELYSSARQ-NH2) are incubated in a reaction buffer composed of 20 mM Tris, 50 mM NaCl, MgCl2 (5-25 mM depending on the kinase), MnCl2 (0-10 mM), 1 mM DTT, 0.1 mM EDTA, 0.01% bovine serum albumin, 0.005% Tween-20, and 10% DMSO at pH 7.4 for one hour. The reaction is quenched by the addition of 1.2 equivalents of EDTA (relative to divalent cation) in 25 μL of 1× Lance buffer (Perkin-Elmer). Streptavidin-APC (Perkin-Elmer) and Eu-labeled p-Tyr100 antibody (Perkin-Elmer) in 1× Lance buffer are added in a 25 μL volume to give final concentrations of 100 nM and 2.5 nM, respectively, and the mixture is allowed to incubate for one hour. The TR-FRET signal is measured on a multimode plate reader with an excitation wavelength (λEx) of 330 nm and detection wavelengths (λEm) of 615 and 665 nm. Activity is determined by the ratio of the fluorescence at 665 nm to that at 615 nm. For each compound, enzyme activity is measured at various concentrations of compound. Negative control reactions are performed in the absence of inhibitor in replicates of six, and two no-enzyme controls were used to determine baseline fluorescence levels. Inhibition constants, Ki(app), are obtained using the program BatchKi (Kuzmic et al. (2000), Anal. Biochem. 286:45-50). IC50s are obtained according to the equation: IC50={Ki(app)/(1+[ATP]/Km^ATP)}+[E]total/2;
For all kinases, [ATP]=Km^ATP, [Btk]total=0.5 nM and [Lck]total=6 nM.

Chain of Btk (Q06187 whole entry): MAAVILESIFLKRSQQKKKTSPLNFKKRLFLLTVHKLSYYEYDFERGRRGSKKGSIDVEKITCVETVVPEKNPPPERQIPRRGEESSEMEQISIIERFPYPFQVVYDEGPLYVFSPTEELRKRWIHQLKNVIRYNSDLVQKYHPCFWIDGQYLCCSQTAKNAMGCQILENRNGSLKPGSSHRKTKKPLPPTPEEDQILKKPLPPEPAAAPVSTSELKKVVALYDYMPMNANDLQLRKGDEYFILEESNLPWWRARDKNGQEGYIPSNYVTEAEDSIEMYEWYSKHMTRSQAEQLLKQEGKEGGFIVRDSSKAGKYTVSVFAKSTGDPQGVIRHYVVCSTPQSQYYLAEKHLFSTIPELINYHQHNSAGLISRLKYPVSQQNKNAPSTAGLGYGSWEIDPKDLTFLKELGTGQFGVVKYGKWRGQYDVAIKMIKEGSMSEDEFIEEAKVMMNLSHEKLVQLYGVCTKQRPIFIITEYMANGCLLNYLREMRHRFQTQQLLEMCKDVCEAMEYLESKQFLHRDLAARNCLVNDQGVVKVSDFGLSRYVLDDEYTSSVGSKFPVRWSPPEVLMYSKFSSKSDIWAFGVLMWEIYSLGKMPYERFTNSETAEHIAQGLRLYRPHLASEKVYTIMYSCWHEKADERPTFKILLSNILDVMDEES

| Compound | IC50 [nM] |
| --- | --- |
| Nc1ncnc2c1c(-c1ccc(Oc3ccccc3)cc1)nn2[C@@H]1CCN(C(=O)/C=C/CNC2CCOCC2)C1 [Example 1d, (R,E)-1-(3-(4-amino-3-(4-phenoxyphenyl)-1H-pyrazolo[3,4-d]pyrimidin-1-yl)pyrrolidin-1-yl)-4-(tetrahydro-2H-pyran-4-ylamino)but-2-en-1-one] | < 100 |
| CN(C/C=C/C(=O)N1CCC[C@@H](n2nc(-c3ccc(Oc4ccccc4)cc3)c3c(N)ncnc32)C1)C1COC1 [Example 2m, (R,E)-1-(3-(4-amino-3-(4-phenoxyphenyl)-1H-pyrazolo[3,4-d]pyrimidin-1-yl)piperidin-1-yl)-4-(methyl(oxetan-3-yl)amino)but-2-en-1-one] | < 100 |
| CCN(C/C=C/C(=O)N1CC[C@@H](n2nc(-c3ccc(Oc4ccccc4)cc3)c3c(N)ncnc32)C1)C1CC1 [Example 2v, (R,E)-1-(3-(4-amino-3-(4-phenoxyphenyl)-1H-pyrazolo[3,4-d]pyrimidin-1-yl)pyrrolidin-1-yl)-4-(cyclopropyl(ethyl)amino)but-2-en-1-one] | < 100 |
| Nc1ncnc2c1c(-c1ccc(Oc3ccccc3)cc1)nn2[C@@H]1CCCN(C(=O)/C=C/CNc2ccccn2)C1 [Example 1u, (R,E)-1-(3-(4-amino-3-(4-phenoxyphenyl)-1H-pyrazolo[3,4-d]pyrimidin-1-yl)piperidin-1-yl)-4-(pyridin-2-ylamino)but-2-en-1-one] | < 100 |
| CCN(C/C=C/C(=O)N1CCC[C@@H](n2nc(-c3ccc(Oc4ccccc4)cc3)c3c(N)ncnc32)C1)C1CC1 [Example 5a, (R,E)-1-(3-(4-amino-3-(4-phenoxyphenyl)-1H-pyrazolo[3,4-d]pyrimidin-1-yl)piperidin-1-yl)-4-(cyclopropyl(ethyl)amino)but-2-en-1-one] | < 100 |
| CN1CCC(NC/C=C/C(=O)N2CCC[C@@H](n3nc(-c4ccc(Oc5ccccc5)cc4)c4c(N)ncnc43)C2)CC1 [Example 2ao, (R,E)-1-(3-(4-amino-3-(4-phenoxyphenyl)-1H-pyrazolo[3,4-d]pyrimidin-1-yl)piperidin-1-yl)-4-(1-methylpiperidin-4-ylamino)but-2-en-1-one] | < 100 |
| Nc1ncnc2c1c(-c1ccc(Oc3ccccc3)cc1)nn2[C@@H]1CCCN(C(=O)/C=C/CNC2COC2)C1 [Example 2n, (R,E)-1-(3-(4-amino-3-(4-phenoxyphenyl)-1H-pyrazolo[3,4-d]pyrimidin-1-yl)piperidin-1-yl)-4-(oxetan-3-ylamino)but-2-en-1-one] | < 100 |
| CN(C/C=C/C(=O)N1CC[C@@H](n2nc(-c3ccc(Oc4ccccc4)cc3)c3c(N)ncnc32)C1)[C@H]1CCOC1 [Example 2d, (E)-1-((R)-3-(4-amino-3-(4-phenoxyphenyl)-1H-pyrazolo[3,4-d]pyrimidin-1-yl)pyrrolidin-1-yl)-4-(methyl((S)-tetrahydrofuran-3-yl)amino)but-2-en-1-one] | < 100 |
| Nc1ncnc2c1c(-c1ccc(Oc3ccccc3)cc1)nn2[C@@H]1CCN(C(=O)/C=C/CNC2COC2)C1 [Example 2g, (R,E)-1-(3-(4-amino-3-(4-phenoxyphenyl)-1H-pyrazolo[3,4-d]pyrimidin-1-yl)pyrrolidin-1-yl)-4-(oxetan-3-ylamino)but-2-en-1-one] | < 100 |
| Nc1ncnc2c1c(-c1ccc(Oc3ccccc3)cc1)nn2[C@@H]1CCN(C(=O)/C=C/CNC2CCCC2)C1 [Example 2z, (R,E)-1-(3-(4-amino-3-(4-phenoxyphenyl)-1H-pyrazolo[3,4-d]pyrimidin-1-yl)pyrrolidin-1-yl)-4-(cyclopentylamino)but-2-en-1-one] | < 100 |
| CN(C/C=C/C(=O)Nc1cccc(-n2nc(-c3ccc(Oc4ccccc4)cc3)c3c(N)ncnc32)c1)C1CCC1 [Example 7g, (E)-N-(3-(4-amino-3-(4-phenoxyphenyl)-1H-pyrazolo[3,4-d]pyrimidin-1-yl)phenyl)-4-(cyclobutyl(methyl)amino)but-2-enamide] | < 100 |
| CN1CCC(NC/C=C/C(=O)N2CC[C@@H](n3nc(-c4ccc(Oc5ccccc5)cc4)c4c(N)ncnc43)C2)CC1 [Example 2ad, (R,E)-1-(3-(4-amino-3-(4-phenoxyphenyl)-1H-pyrazolo[3,4-d]pyrimidin-1-yl)pyrrolidin-1-yl)-4-(1-methylpiperidin-4-ylamino)but-2-en-1-one] | < 100 |
| CN(C/C=C/C(=O)N1CCC[C@@H](n2nc(-c3ccc(Oc4ccccc4)cc3)c3c(N)ncnc32)C1)[C@H]1CCOC1 [Example 2j, (E)-1-((R)-3-(4-amino-3-(4-phenoxyphenyl)-1H-pyrazolo[3,4-d]pyrimidin-1-yl)piperidin-1-yl)-4-(methyl((S)-tetrahydrofuran-3-yl)amino)but-2-en-1-one] | < 100 |
| Nc1ncnc2c1c(-c1ccc(Oc3ccccc3)cc1)nn2[C@@H]1CCCN(C(=O)/C=C/CNC2CCCCC2)C1 [Example 2ah, (R,E)-1-(3-(4-amino-3-(4-phenoxyphenyl)-1H-pyrazolo[3,4-d]pyrimidin-1-yl)piperidin-1-yl)-4-(cyclohexylamino)but-2-en-1-one] | < 100 |
| CN(C/C=C/C(=O)N1CCC[C@@H](n2nc(-c3ccc(Oc4ccccc4)cc3)c3c(N)ncnc32)C1)C1CCCCC1 [Example 2ag, (R,E)-1-(3-(4-amino-3-(4-phenoxyphenyl)-1H-pyrazolo[3,4-d]pyrimidin-1-yl)piperidin-1-yl)-4-(cyclohexyl(methyl)amino)but-2-en-1-one] | < 100 |
| Nc1ncnc2c1c(-c1ccc(Oc3ccccc3)cc1)nn2[C@@H]1CCN(C(=O)/C=C/CNC2CCCCC2)C1 [Example 2x, (R,E)-1-(3-(4-amino-3-(4-phenoxyphenyl)-1H-pyrazolo[3,4-d]pyrimidin-1-yl)pyrrolidin-1-yl)-4-(cyclohexylamino)but-2-en-1-one] | < 100 |
| CN(C/C=C/C(=O)N1CC[C@@H](n2nc(-c3ccc(Oc4ccccc4)cc3)c3c(N)ncnc32)C1)C1CC1 [Example 2u, (R,E)-1-(3-(4-amino-3-(4-phenoxyphenyl)-1H-pyrazolo[3,4-d]pyrimidin-1-yl)pyrrolidin-1-yl)-4-(cyclopropyl(methyl)amino)but-2-en-1-one] | < 100 |
| CN(C/C=C/C(=O)Nc1cccc(-n2nc(-c3ccc(Oc4ccccc4)cc3)c3c(N)ncnc32)c1)C1CC1 [Example 7f, (E)-N-(3-(4-amino-3-(4-phenoxyphenyl)-1H-pyrazolo[3,4-d]pyrimidin-1-yl)phenyl)-4-(cyclopropyl(methyl)amino)but-2-enamide] | < 100 |
| Nc1ncnc2c1c(-c1ccc(Oc3ccccc3)cc1)nn2[C@@H]1CCN(C(=O)/C=C/CN[C@H]2CCOC2)C1 [Example 2e, (E)-1-((R)-3-(4-amino-3-(4-phenoxyphenyl)-1H-pyrazolo[3,4-d]pyrimidin-1-yl)pyrrolidin-1-yl)-4-((S)-tetrahydrofuran-3-ylamino)but-2-en-1-one] | < 100 |
| CN(C/C=C/C(=O)N1CC[C@@H](n2nc(-c3ccc(Oc4ccccc4)cc3)c3c(N)ncnc32)C1)C1CCC1 [Example 2aa, (R,E)-1-(3-(4-amino-3-(4-phenoxyphenyl)-1H-pyrazolo[3,4-d]pyrimidin-1-yl)pyrrolidin-1-yl)-4-(cyclobutyl(methyl)amino)but-2-en-1-one] | < 100 |
| CN(C/C=C/C(=O)N1CC[C@@H](n2nc(-c3ccc(Oc4ccccc4)cc3)c3c(N)ncnc32)C1)C1CCCC1 [Example 2y, (R,E)-1-(3-(4-amino-3-(4-phenoxyphenyl)-1H-pyrazolo[3,4-d]pyrimidin-1-yl)pyrrolidin-1-yl)-4-(cyclopentyl(methyl)amino)but-2-en-1-one] | < 100 |
| Nc1ncnc2c1c(-c1ccc(Oc3ccccc3)cc1)nn2[C@@H]1CCN(C(=O)/C=C/CNC2CCC2)C1 [Example 2ab, (R,E)-1-(3-(4-amino-3-(4-phenoxyphenyl)-1H-pyrazolo[3,4-d]pyrimidin-1-yl)pyrrolidin-1-yl)-4-(cyclobutylamino)but-2-en-1-one] | < 100 |
| CN(C/C=C/C(=O)N1CC[C@@H](n2nc(-c3ccc(Oc4cccc(F)c4)cc3)c3c(N)ncnc32)C1)C1CC1 [Example 4c, (R,E)-1-(3-(4-amino-3-(4-(3-fluorophenoxy)phenyl)-1H-pyrazolo[3,4-d]pyrimidin-1-yl)pyrrolidin-1-yl)-4-(cyclopropyl(methyl)amino)but-2-en-1-one] | < 100 |
| CC(C)N(C/C=C/C(=O)N1CCC[C@@H](n2nc(-c3ccc(Oc4ccccc4)cc3)c3c(N)ncnc32)C1)C1CC1 [Example 2t, (R,E)-1-(3-(4-amino-3-(4-phenoxyphenyl)-1H-pyrazolo[3,4-d]pyrimidin-1-yl)piperidin-1-yl)-4-(cyclopropyl(isopropyl)amino)but-2-en-1-one] | < 100 |
| Nc1ncnc2c1c(-c1ccc(Oc3ccccc3)cc1)nn2[C@@H]1CCCN(C(=O)/C=C/CNC2CCOCC2)C1 [Example 1f, (R,E)-1-(3-(4-amino-3-(4-phenoxyphenyl)-1H-pyrazolo[3,4-d]pyrimidin-1-yl)piperidin-1-yl)-4-(tetrahydro-2H-pyran-4-ylamino)but-2-en-1-one] | < 100 |
